The conditions of series [1]: log kw^IAM – clog kw^IAM. How it is done: Since polarity is a molecular property often related to solubility,[13] experimental descriptors of polarity (Δ log kw^IAM and EPSA) were also determined. Introduced by Grumetto in 2012,[30] Δ log kw^IAM is the difference between the experimental log kw^IAM and the value expected for neutral analytes with a zero value of polar surface area (which depends on the experimental measurement of the n-octanol partition coefficient[31]). EPSA quantifies the polarity of a molecule using a supercritical fluid chromatographic (SFC) method.[32]

Series [2] is described as follows: Thermodynamic solubility, shake-flask, 10 mM PBS (0.15 M KCl) pH 7, 25 °C, 1 h, HPLC-UV. Particulars: pH 7, 25 °C; for solubility at 1 h: 25 °C, pH 7, aqueous buffer, thermodynamic from solid; for Classification (GSK guidelines): solubility class. Here is the method:
Its measurement only requires an initial DMSO stock solution which is precipitated by the addition of an aqueous phase.[23],[24] Here, we measured thermodynamic solubility, often determined in late lead optimization, which efficiently considers the solubility value when the equilibrium with the stable phase or polymorph has been reached.
Solubility was determined in 10 mM PBS (0.15 M KCl) at pH 7, 25 °C. A 1–2 mg sample of each molecule was added to the same quantity (1–2 mL) of the mentioned buffer to obtain 1 mg/mL solutions in the vial. Samples were then submitted to 25 °C and magnetic stirring (500 rpm) for 1 h. After this period, solutions or suspensions were filtered through the 0.45 μm membrane pore and diluted with buffer, 10 mM PBS (0.15 M KCl). The amount of dissolved compound in each sample was then quantified, in duplicate, via HPLC using ultraviolet (UV) spectrometric detection.
Variable volumes of pure DMSO (0–100 μL) were added separately to small and defined (1 mg) quantities of each compound to obtain clear solutions. […] Afterward, 5% DMSO 10 mM PBS (0.15 M KCl) was added until the suspensions or precipitations were redissolved, to render clear solutions. As soon as solutions were obtained, they were used as mother solutions for the performance of 5–10 point calibration curves with serial buffer dilutions (1:1; v/v) 5% DMSO 10 mM PBS (0.15 M KCl). Calibration points were then measured via HPLC-UV.
The mobile phase consisted of a solution of acetonitrile (ACN) and 20 mM ammonium acetate buffer (AAB), pH 7, freshly prepared. A 10 μL volume of each sample (volume of injection) was injected at an isocratic 1 mL/min flow rate analyzed at 30 °C (oven temperature). Solubility determination of each compound required a specific HPLC method. Settings are collected in Table S11 (PROTACs) and Table S10 (building blocks).
Injections were performed in duplicate for each molecule’s calibration points. The retention time and area under the curve (AUC in absorbance units) were collected, and the average was calculated. The AUC average (y-axis) was plotted versus theoretical concentration (mg/mL; x-axis) to obtain a calibration curve for each molecule. Correlation equations and coefficients (R^2) were efficiently calculated for each compound (Table S12 for PROTACs and Table S10 for building blocks). Samples were then injected in duplicate, and the AUC averages and standard deviations were calculated. Finally, the absorbance averages were interpolated into the corresponding equations, extracting the final solubility values with their standard deviation, after dilution factor corrections.

The nature of the next series: physchem. Particulars: for chromatographic logD: pH 7. How it is done:
PROTAC experimental solubility was first correlated with lipophilicity descriptors (log P is implemented in the general solubility equation (GSE)[27]). As described by some of us,[16] BRlogD represents a validated,[28] very useful and straightforward chromatographic descriptor for the logarithm of the distribution coefficient in the n-octanol/water system (log D) of neutral and cationic bRo5 molecules.
The mobile phase consisted of an isocratic solution of 20 mM ammonium acetate (pH 7.0) and acetonitrile, 40–60%, respectively (v/v).[16] Samples were dissolved in buffer/ACN and injected into the XBridge column at a flow rate of 1.0 mL/min at 30 °C. Retention times were determined in duplicate, and the dead time, t0, was recorded as the baseline disturbance.

For series [3] the following is noted: pH 7.0, extrapolated to 0% acetonitrile. How it is done:
The logarithm of the capacity factor of an IAM column system, extrapolated at 100% water (log kw^IAM), is also an experimental descriptor of the lipophilicity of drugs since it mimics the interaction between the polar heads of the membrane phospholipids and the drug in solution.[29]
The mobile phase consisted of a solution of 20 mM ammonium acetate (pH 7.0) in a mixture with acetonitrile at various percentages (from 10 to 50%, v/v). Samples were dissolved in buffer/ACN and injected into the previously mentioned IAM column at a flow rate of 1.0 mL/min at 30 °C. Chromatographic retention data were determined in duplicate for the different mobile phase conditions. Data were recorded as log k′ (capacity factor k′ = [tR – t0]/t0), where tR and t0 are the retention times of the sample and a nonretained molecule (citric acid), respectively. Thus, log kw^IAM values were calculated by an extrapolation method of the experimental equation, at 0% acetonitrile. Moreover, five gold standard compounds (caffeine, carbamazepine, ketoprofen, theobromine, and toluene) were checked daily.

A short description of series [4]: pKa determination by potentiometry (SiriusT3). Particulars: for Ionization state at pH 7: experimental. How it is done: Solids were weighed with a Sartorius Entris224-1S Analytical (www.sartorius.com). pKa values were measured with a SiriusT3 instrument (Sirius Analytical Instruments) equipped with a reference pH electrode (Ag/AgCl double junction) and a turbidity detector. Ultrasonic cleaner, obtained from VWR Chemicals (www.vwr.com), and an IKA VORTEX 3 (www.ika.com) were used to avoid precipitation in the calibration points. Stirring and heating were provided by magnetic and heating plates C-MAG MS 7 and IKA ETS-D5, respectively (www.ika.com). Moreover, pH was measured with a Eutech pH Meter 2700 (www.fishersci.com). Analyses were carried out by high-performance liquid chromatography (HPLC; DIONEX Ultimate 3000, Thermo Scientific Inc.) provided with an RS diode array and Chromeleon 7.2.10 software (www.thermofisher.com). HPLC columns IAM.PC.DD2 (300 Å, 10 μm, 10 cm × 4.6 mm) from REGIS and XBridge Shield RP18 (130 Å, 5 μm, 5 cm × 4.6 mm) from Waters (www.waters.com) were used. Ergonomic high-performance single-channel variable volume pipettors, HPLC 1.5 mL vials, 0.1 mL microinsert, and PP 9 mm screw caps were obtained from VWR Signature. EPSA analyses were performed by supercritical fluid chromatography (SFC; JASCO SFC-4000, Jasco Europe srl), provided with a diode array and ChromNAV 2.04.00 software (www.jascoweb.com). The SFC column Chirex 3014 (S)-VAL and (R)-NEA (100 Å, 5 μm, 25 cm × 4.6 mm) from Phenomenex was used.
Acidic dissociation constants of pomalidomide, S,R,S-AHPC HCl, and S,S,S-AHPC 2HCl were measured potentiometrically. Titrations were performed to 0.15 M KCl sample solutions under a nitrogen atmosphere at 25 ± 1 °C. Moreover, standardized 0.5 M KOH and 0.5 M HCl were used as titration reagents (solutions were prepared from Titrisol (Merck) concentrated solutions).[45]

Setting [5] is: Exp.LogS, PROTAC pairs and building blocks.
The mark [6] stands for this setting: Solubility average, thermodynamic, shake-flask, 1 h.

Turning to `CC(=O)N1c2ccc(-c3ccc(C(=O)O)cc3)cc2[C@H](Nc2ccc(Cl)cc2)C[C@@H]1C` [I-BET726], the “ΔLog kw IAM” value in series [1] came out at 2.64. In series [2] (setting [5]), this compound had a solubility at 1 h of 60.3 µM. The compound also yielded a chromatographic logD in the series “physchem” of 0.3. Moreover, in series [3], the “Log kw IAM” value was 1.88.
The like results for `Cc1ncsc1-c1ccc(CNC(=O)[C@@H]2C[C@@H](O)CN2C(=O)[C@@H](N)C(C)(C)C)cc1.Cl` [S,R,S-AHPC HCl] were, in that order, 2.34, 2090 µM, 0.56 and 1.83.
The like results for `Cc1sc2c(c1C)C(c1ccc(Cl)cc1)=N[C@@H](CC(=O)O)c1nnc(C)n1-2` [JQ1 carboxylic acid] were, in that order, 1.76, > 2510 µM, 0.08 and 0.80.
As to `Nc1cccc2c1C(=O)N(C1CCC(=O)NC1=O)C2=O` (stereo not shown) [Pomalidomide], the “Experimental pKa (2-12)” value in series [4] (0.15 M KCl, 25 °C, (b) = basic) is “Not ionizable”. Moreover, the “Ionization state at pH 7” value in series [4] is recorded as “Neutral”; in series [4] (listed as pomalidomide), “not ionized”. For the same compound, the “ΔLog kw IAM” value in series [1] is reported as 0.64. The compound further showed a solubility at 1 h in series [2] (setting [5]) of 36.3 µM. Moreover, the BRlogD in “physchem” (pH 7.0) is reported as 1.41. The “Log kw IAM” value in series [3] is given as 0.91.
Turning to `COc1cc(-c2cn(C)c(=O)c3cc(C(=N)NC4CCS(=O)(=O)CC4)sc23)ccc1OCC(=O)NCCCCNC(=O)COc1cccc2c1C(=O)N(C1CCC(=O)NC1=O)C2=O` (stereo not shown) [BRD9 degrader-1], in series [1], the “ΔLog kw IAM” value is recorded as “high”. In addition, the solubility at 1 h in series [2] (setting [6]) is 661 µM; in series [2] (Solubility log S, Table S-3), 661 µM; in series [2] (Solubility, Table S-3), 600 µg/mL. Also, in series [2], the “Classification (GSK guidelines)” value is recorded as “High (> 200 μM) (High (> 200 μM))”.
In the case of `Cc1ncsc1-c1ccc(CNC(=O)[C@@H]2C[C@@H](O)CN2C(=O)[C@@H](NC(=O)COCCOCCOCCOCCOCCOCC(=O)N[C@H](C(=O)N2C[C@H](O)C[C@H]2C(=O)NCc2ccc(-c3scnc3C)cc2)C(C)(C)C)C(C)(C)C)cc1` [CM11], the “ΔLog kw IAM” value in series [1] was “high”. Also, the solubility at 1 h is 631 µM in series [2] (setting [6]); 631 µM in series [2] (Solubility log S, Table S-3); 730 µg/mL in series [2] (Solubility, Table S-3). Moreover, in series [2], the “Classification (GSK guidelines)” value is “High (> 200 μM) (High (> 200 μM))”.
On to `COc1cc(C(=O)NC2CCN(C)CC2)ccc1Nc1ncc(C(F)(F)F)c(Oc2cccc3c2C(=O)CC3)n1` [BI-4464], for which the “ΔLog kw IAM” value in series [1] came out at 1.23. The amount in solution in series [2] (setting [5]) (solubility at 1 h) came to 64.6 µM. The chromatographic logD in “physchem” was 1.79. Further, the “Log kw IAM” value in series [3] is reported as 1.84.
Regarding `Cc1ncsc1-c1ccc(CNC(=O)[C@@H]2C[C@H](O)CN2C(=O)[C@@H](NC(=O)COCCOCCOCCOCCOCCOCC(=O)N[C@H](C(=O)N2C[C@@H](O)C[C@H]2C(=O)NCc2ccc(-c3scnc3C)cc2)C(C)(C)C)C(C)(C)C)cc1` [CMP98], in series [1], the “ΔLog kw IAM” value is “high”. Also, the solubility at 1 h in series [2] (setting [6]) was 331 µM; in series [2] (Solubility log S, Table S-3), 331 µM; in series [2] (Solubility, Table S-3), 390 µg/mL. Moreover, the “Classification (GSK guidelines)” value in series [2] is “High (> 200 μM) (High (> 200 μM))”.
Take `Cc1ncsc1-c1ccc(CNC(=O)[C@@H]2C[C@H](O)CN2C(=O)[C@@H](N)C(C)(C)C)cc1.Cl.Cl` [S,S,S-AHPC 2HCl]: the “ΔLog kw IAM” value in series [1] is listed as 2.05. The compound also had a solubility at 1 h in series [2] (setting [5]) of 2040 µM. This compound also came in with a chromatographic logD in the series “physchem” of 0.91. Moreover, the “Log kw IAM” value in series [3] was 1.86.
On to `Cc1ncsc1-c1ccc(CNC(=O)[C@@H]2C[C@@H](O)CN2C(=O)[C@@H](NC(=O)COCCOCCOCCNC(=O)C[C@@H]2N=C(c3ccc(Cl)cc3)c3c(sc(C)c3C)-n3c(C)nnc32)C(C)(C)C)cc1` [MZ1], for which the solubility at 1 h in series [2] (setting [5]) is 38 µM; in series [2] (setting [6]), 38 µM; in series [2] (Solubility, Table S-3), 40 µg/mL. For the same compound, in series [2], the “Classification (GSK guidelines)” value is “Intermediate (30–200 μM) (Intermediate (30–200 μM))”.

The term solubility denotes how much of the substance goes into solution per volume. Low readings indicate a poorly soluble substance, high ones a readily soluble substance. The term chromatographic logD denotes lipophilicity estimated from chromatographic retention. Low values mean a more hydrophilic compound, high ones a more lipophilic compound.

Values taken from PMC9574862, “Designing Soluble PROTACs: Strategies and Preliminary Guidelines” (Journal of Medicinal Chemistry, 2022).
